Source: PubChem BioAssay (NCI)
“And” between values parts separate entries of the source, which are not always exact repeats. Equal values may be shown once.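 Each compound was tested at five concentrations against cells in 96-well plates for 48 hours. GI50: concentration for 50% inhibition of growth. Definition used: TGI = concentration required for complete inhibition of growth.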

Tests used:
Assay in all cases: NCI anticancer screen, dose series, 48 h
NCI-H23 lung = tested on: NCI-H23 lung
SK-OV-3 ovarian = tested on: SK-OV-3 ovarian
MDA-MB-435 = tested on: MDA-MB-435
NCI/ADR-RES ovarian = tested on: NCI/ADR-RES ovarian
T-47D breast = tested on: T-47D breast
UO-31 renal = tested on: UO-31 renal
TK-10 renal = tested on: TK-10 renal

Structure (SMILES)	GI50 (NCI-H23 lung)	TGI (NCI-H23 lung)	GI50 (SK-OV-3 ovarian)	TGI (SK-OV-3 ovarian)	GI50 (MDA-MB-435)	TGI (MDA-MB-435)	GI50 (NCI/ADR-RES ovarian)	TGI (NCI/ADR-RES ovarian)	GI50 (T-47D breast)	TGI (T-47D breast)	GI50 (UO-31 renal)	TGI (UO-31 renal)	GI50 (TK-10 renal)	TGI (TK-10 renal)
COc1ccc2c(C3(c4cn(C)c5cc(OC)ccc45)C(=O)Nc4ccc(Cl)cc43)cn(C)c2c1	3.99 µM	> 100 µM	5.07 µM	> 100 µM	2.51 µM	7.77 µM	3.9 µM	> 100 µM	3.89 µM	> 100 µM	1.48 µM	> 100 µM	–	–
COc1ccccc1C1=C(Nc2ccccc2)C(=O)NC1=O	–	–	> 25 µM	> 25 µM	> 25 µM	> 25 µM	> 25 µM	> 25 µM	> 25 µM	> 25 µM	> 25 µM	> 25 µM	> 25 µM	> 25 µM
Clc1ccc(-c2csc(Nc3cccc(-c4csc(-c5ccccc5)n4)c3)n2)cc1	11.4 µM	26.2 µM	25.3 µM	> 50 µM	9.05 µM	21.6 µM	13 µM	24.2 µM	–	–	12.4 µM	27.4 µM	19.8 µM	> 50 µM
CCCCCCNC(=O)Oc1ccc(/C(=C(/C)Cc2ccc(OC)cc2)c2ccc(OCCCN(C)C)cc2)cc1	15.1 µM	29.9 µM	16.7 µM	30.9 µM	13.8 µM	27.1 µM	15.8 µM	31.3 µM	11.3 µM	27.3 µM	10.9 µM	23.2 µM	17.2 µM	31.6 µM
CC(=O)N1N=C(c2ccc(Nc3ccnc4cc(Cl)ccc34)cc2)CC1c1ccc(Cl)cc1 (stereo not given)	> 100 µM	> 100 µM	–	–	0.566 µM	> 100 µM	3.04 µM	> 100 µM	1.57 µM	> 100 µM	3.87 µM	> 100 µM	> 100 µM	> 100 µM
FC(F)(F)c1ccc(-c2cnc(-n3cc(COCCN4CCCCC4)nn3)nc2NC2CCCCCC2)cc1	3.8 µM	7.81 µM	4.04 µM	7.62 µM	3.74 µM	7.76 µM	3.85 µM	7.66 µM	4.12 µM	9.21 µM	2.63 µM	5.97 µM	4.14 µM	7.81 µM
C=C1C(=O)O[C@H]2[C@H]1CC/C(COC(=O)CCSCCC(=O)OC/C1=C/CC[C@@]3(C)O[C@H]3[C@H]3OC(=O)C(=C)[C@@H]3CC1)=C\CC[C@@]1(C)O[C@@H]21	1.89 µM	4.2 µM	4.1 µM	13.8 µM	1.63 µM	4.19 µM	3.21 µM	11 µM	1.3 µM	3.21 µM	1.07 µM	2.27 µM	1.5 µM	2.98 µM
Cc1cn(C2C=CC(CO)O2)c(=O)[nH]c1=O (stereo not given)	–	> 1000 µM	–	> 1000 µM	–	> 1000 µM	–	> 1000 µM	–	> 1000 µM	–	> 1000 µM	–	> 1000 µM
COC1=C(C)C(=O)c2c(c(CCCl)c3n2CCC3O)C1=O (stereo not given)	0.133 µM	0.799 µM	0.412 µM	3.37 µM	1.24 µM	2.79 µM	0.872 µM	7.61 µM	16.3 µM	> 82.9 µM	0.545 µM	2.42 µM	0.296 µM	0.763 µM
CCOc1cc(Br)c(C(C)NC(=O)c2cccc(OC)c2)cc1OCC (stereo not given)	29.1 µM	> 100 µM	23.1 µM	> 100 µM	2.16 µM	6.1 µM	5.71 µM	> 100 µM	9.53 µM	> 100 µM	12.1 µM	> 100 µM	28.2 µM	> 100 µM
CC1=C(/C=C/C(C)=C/C=C/C(C)=C/C=N/NC(=S)NC(=S)N/N=C/C=C(C)/C=C/C=C(C)/C=C/C2=C(C)CCCC2(C)C)C(C)(C)CCC1	1.76 µM and 1.17 µM	7.28 µM and 4.37 µM	6.79 µM and 5.51 µM	14 µM and 12.3 µM	1.17 µM and 0.84 µM	4.49 µM and 2.14 µM	1.76 µM and 1.56 µM	6.61 µM and 5.46 µM	1.49 µM and 1.09 µM	8.43 µM and 4.34 µM	1.84 µM and 1.52 µM	8.94 µM and 7.32 µM	8.6 µM and 2.2 µM	16.1 µM and 7.54 µM
Cn1nc(-c2ccc(Cl)cc2)nc2c(=O)n(C)c(=O)nc1-2	1.18 µM	3.16 µM	4.8 µM	17.7 µM	0.137 µM	0.405 µM	1.33 µM	4.47 µM	1.12 µM	3.43 µM	1.53 µM	6.56 µM	6.09 µM	24.8 µM
COc1cccc(-c2ccc3c(c2)C2CCN(Cc4ccccc4)C3C2)c1 (stereo not given)	–	–	14.8 µM	48.8 µM	2.43 µM	7.29 µM	8.94 µM	32.5 µM	5.19 µM	38.5 µM	6.79 µM	21.6 µM	–	–
CC(C)(C)c1ccc(OC(=O)Nc2ccc(O)c(C(=O)O)c2)cc1	–	> 100 µM	–	> 100 µM	–	> 100 µM	–	> 100 µM	–	> 100 µM	–	–	–	> 100 µM
Brc1ccc2[nH]cc(-c3nc(-c4c[nH]c5ncccc45)cs3)c2c1	3.55 µM	18.7 µM	5.71 µM	20.4 µM	4.04 µM	15.8 µM	3.38 µM	26.1 µM	4.97 µM	20.3 µM	1.16 µM	13.1 µM	5.28 µM	17.8 µM
CCOC(=O)c1c(C)n(Cc2ccccc2)c2c1cc(O)c1[nH]c(Cc3ccccc3)nc12	9.19 µM	> 56 µM	23.2 µM	> 100 µM	> 42.8 µM	> 100 µM	18.9 µM	> 57.9 µM	9.74 µM	> 36.6 µM	> 32.9 µM	> 51.4 µM	1.5 µM	54.5 µM
Clc1ccc(-c2nnc(-c3cccc4ccccc34)o2)cc1Cl	–	> 100 µM	–	> 100 µM	–	> 100 µM	–	> 100 µM	–	> 100 µM	–	> 100 µM	–	> 100 µM
CCC(c1ccc(OC)cc1)C(CC)c1ccc(O)c(CN2CCN(C)CC2)c1 (stereo not given)	6.37 µM	20.6 µM	13.8 µM	29.2 µM	2.72 µM	9.4 µM	5.51 µM	20.6 µM	2.57 µM	8.35 µM	1.83 µM	7.32 µM	4.48 µM	15.6 µM
COC(=O)C(=CNC(N)=O)C(=O)OC	–	> 100 µM	–	–	–	> 100 µM	–	> 100 µM	–	> 100 µM	–	> 100 µM	–	> 100 µM

Structure (SMILES)	GI50 (NCI-H23 lung)	TGI (NCI-H23 lung)	GI50 (SK-OV-3 ovarian)	TGI (SK-OV-3 ovarian)	GI50 (MDA-MB-435)	TGI (MDA-MB-435)	GI50 (NCI/ADR-RES ovarian)	TGI (NCI/ADR-RES ovarian)	GI50 (T-47D breast)	TGI (T-47D breast)	GI50 (UO-31 renal)	TGI (UO-31 renal)	GI50 (TK-10 renal)	TGI (TK-10 renal)
COc1cc(-c2cc(-c3ccc(Nc4ccnc5cc(Cl)ccc45)cc3)nc(N3CCOCC3)n2)cc(OC)c1OC	2.2 µM	6.22 µM	14.9 µM	31.7 µM	1.75 µM	3.48 µM	2.3 µM	7.26 µM	2.06 µM	4.65 µM	1.57 µM	3.11 µM	1.82 µM	3.3 µM
O=[N+]([O-])c1ccc(Oc2nc(Nc3ccc(O[C@H]4CO[C@H]5[C@@H]4OC[C@@H]5O)c(Cl)c3)ncc2F)c(Cl)c1	1.3 µM	3.22 µM	–	–	1.2 µM	3.5 µM	9.04 µM	> 100 µM	1.13 µM	8.06 µM	1.6 µM	4.81 µM	1.08 µM	4.07 µM
COc1cccc(CSCC(=O)O)c1	–	> 100 µM	–	> 100 µM	–	> 100 µM	–	> 100 µM	–	> 100 µM	–	> 100 µM	–	> 100 µM
Cc1cc(S(=O)(=O)/N=C/N(C)C)c(SC(=O)c2ccc(Cl)cc2)cc1Cl	23.2 µM	56.2 µM	> 100 µM	> 100 µM	25.1 µM	70.4 µM	28.4 µM	72.2 µM	–	–	> 100 µM	> 100 µM	28.2 µM	80.7 µM
O=C(O)C1CCCCC1c1c2ccc(=O)c(O)c-2oc2c(O)c(O)ccc12 (stereo not given)	–	–	–	> 100 µM	–	44.5 µM	–	–	–	> 100 µM	–	> 100 µM	–	> 100 µM
O=C(O)C1CC2(C1)CC(C(=O)O)C2 (stereo not given)	–	> 100 µM	–	> 100 µM	–	> 100 µM	–	> 100 µM	–	> 100 µM	–	> 100 µM	–	> 100 µM
COc1cccc2c1-c1c(c3ccc([N+](=O)[O-])cc3c(=O)n1CCCN)C2=O	1.39 µM	3.01 µM	11.5 µM	29.8 µM	–	–	3.99 µM	19.1 µM	1.52 µM	3.63 µM	1.26 µM	2.59 µM	2.81 µM	13.2 µM
N[C@@H]1C(=O)N2C(C(=O)OC(c3ccccc3)c3ccccc3)=C(CCl)CS[C@H]12	95.6 µM	> 100 µM	> 100 µM	> 100 µM	35.1 µM	> 100 µM	38.2 µM	> 100 µM	46 µM	> 100 µM	47.3 µM	> 100 µM	50.1 µM	> 100 µM
Cc1cc2cc3ccc(N(C)C)cc3nc2cc1N	0.49 µM	4.42 µM	0.552 µM	3.35 µM	0.703 µM	2.28 µM	2.51 µM	23.4 µM	0.434 µM	3.5 µM	0.642 µM	5.01 µM	1.41 µM	9.44 µM
Oc1ccc(-c2nc3ccc4[nH]ncc4c3c3c2CCCC3)c(F)c1	3.15 µM	14 µM	0.765 µM	2.75 µM	1.75 µM	10.9 µM	3.91 µM	53.3 µM	1.57 µM	6.61 µM	2.6 µM	8.35 µM	2 µM	9.53 µM
CC1=CC(=O)C(C(C)C)=CC1=Nc1cc(Br)c(O)c(Br)c1	4.26 µM	26.1 µM	3.45 µM	15.9 µM	2.1 µM	6.13 µM	–	–	5.74 µM	21.2 µM	8.22 µM	33.1 µM	11.7 µM	31.4 µM
S=C(Nc1ccc(N=Nc2ccccc2)cc1)SCc1ccccc1	–	30.7 µM	–	98 µM	–	36.4 µM	–	35.1 µM	–	> 100 µM	–	34.9 µM	–	25.5 µM
COc1cc(OC)c2nccc(NCCCN(C)C)c2c1[N+](=O)[O-]	–	> 100 µM	–	> 100 µM	–	> 100 µM	–	> 100 µM	–	> 100 µM	–	> 100 µM	–	> 100 µM
Cc1cc(Nc2nc(-c3cccnc3)nc3ccccc23)n[nH]1	5.16 µM	> 100 µM	0.956 µM	> 100 µM	0.647 µM	> 100 µM	5.13 µM	> 92.7 µM	2.02 µM	> 75.4 µM	0.443 µM	> 100 µM	0.607 µM	99.1 µM
Nc1cc(O)ccc1N=Nc1ccc(-c2nc3ccccc3[nH]2)cc1	–	–	> 100 µM	> 100 µM	17.1 µM	73.5 µM	> 100 µM	> 100 µM	29.9 µM	> 100 µM	30.5 µM	> 100 µM	16.1 µM	> 100 µM
Cc1ccc(C(NC(=O)c2ccccc2)c2ccc3cccnc3c2O)cc1 (stereo not given)	0.417 µM	> 32.5 µM	0.474 µM	30.7 µM	0.491 µM	23.4 µM	0.189 µM	–	0.478 µM	27.7 µM	0.198 µM	1.19 µM	0.413 µM	24.1 µM
CC(=O)c1c(CN(C)c2ccccc2)n([O-])c2ccccc2[n+]1=O	16.4 µM	35.3 µM	31.8 µM	70 µM	–	–	19.5 µM	55.9 µM	–	–	32 µM	> 100 µM	45.8 µM	> 100 µM
COC(=O)C1OC2(CCCC3CC32)O[C@H]1C(=O)OC (stereo not given in full)	–	> 100 µM	–	> 100 µM	–	> 100 µM	–	> 100 µM	–	–	–	> 100 µM	–	> 100 µM
Oc1ccc(O)c(-c2cc(-c3ccc(Cl)cc3)nn2-c2ccccc2)c1	2.48 µM	9.24 µM	–	–	14.9 µM	32.1 µM	–	25.3 µM	–	–	12.2 µM	> 100 µM	6.58 µM	25.6 µM
